We go through 42 compounds from ChEMBL document CHEMBL1777746, “1,5-Substituted nipecotic amides: selective PDE8 inhibitors displaying diastereomer-dependent microsomal stability” (Bioorg Med Chem Lett, 2011).

Data set [1] in a line: Dissociation constant, pKa of the compound. The class given is physicochemical.
Data set [2] is described as follows: Lipophilicity, log D of the compound. It counts as physicochemical. Particulars: octanol/water.
The nature of data set [3]: Intrinsic clearance in human liver microsomes. The class given is ADME, Microsome.
A short description of data set [4]: Half life in human liver microsomes. It counts as ADME, Microsome. For orientation: Microsomes from liver hold many membrane-bound enzymes, among them those of drug oxidation.
Data set [5] deals with High affinity cAMP-specific and IBMX-insensitive 3',5'-cyclic phosphodiesterase 8B (Homo sapiens, UniProt O95263). The data set can be described thus: Inhibition of PDE8B.
Sequence of High affinity cAMP-specific and IBMX-insensitive 3',5'-cyclic phosphodiesterase 8B (O95263 whole entry): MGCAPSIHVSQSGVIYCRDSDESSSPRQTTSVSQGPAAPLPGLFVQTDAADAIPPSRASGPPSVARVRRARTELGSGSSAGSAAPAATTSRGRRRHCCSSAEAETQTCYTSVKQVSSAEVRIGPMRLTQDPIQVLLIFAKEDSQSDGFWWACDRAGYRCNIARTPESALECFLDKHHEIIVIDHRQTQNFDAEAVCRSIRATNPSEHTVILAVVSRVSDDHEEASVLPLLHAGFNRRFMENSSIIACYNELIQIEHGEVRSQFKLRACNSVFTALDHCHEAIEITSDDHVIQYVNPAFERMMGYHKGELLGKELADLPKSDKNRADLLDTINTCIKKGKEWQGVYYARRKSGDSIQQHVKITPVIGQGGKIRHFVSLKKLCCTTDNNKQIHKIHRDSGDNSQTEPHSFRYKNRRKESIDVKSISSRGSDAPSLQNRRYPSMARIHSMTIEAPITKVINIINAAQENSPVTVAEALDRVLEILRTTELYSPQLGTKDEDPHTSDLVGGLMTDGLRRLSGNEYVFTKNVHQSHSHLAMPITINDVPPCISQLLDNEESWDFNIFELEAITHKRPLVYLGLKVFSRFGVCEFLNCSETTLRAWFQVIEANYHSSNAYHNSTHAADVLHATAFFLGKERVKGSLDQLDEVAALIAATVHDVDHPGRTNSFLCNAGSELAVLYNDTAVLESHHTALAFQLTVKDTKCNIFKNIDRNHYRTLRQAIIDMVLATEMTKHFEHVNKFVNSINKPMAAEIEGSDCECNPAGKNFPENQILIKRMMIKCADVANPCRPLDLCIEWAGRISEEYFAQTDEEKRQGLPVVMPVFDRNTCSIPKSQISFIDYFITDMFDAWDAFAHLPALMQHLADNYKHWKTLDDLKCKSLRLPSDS
Data set [6] in a line: Oral bioavailability in rat. Particulars: in vivo. It counts as ADME, organism-based.
A short description of data set [7]: Clearance in rat. The class given is ADME, organism-based. Particulars: in vivo.
A short description of data set [8]: Volume of distribution at steady state in rat. The class given is ADME, organism-based. Particulars: in vivo, read-out: Vdss.

Where only a bound is given, the exact number is not on record here.

The compound `COCC1CC(C(=O)NC[C@H]2CCCO2)CN(Cc2nc(N3CCOCC3)oc2C)C1` (stereo not given in full) displayed a pKa in data set [1] of 7.2. The pH-dependent lipophilicity (logD) amounted to 1 in data set [2] and 0.8 in data set [2] (read-out: logD).

Turning to `Cc1cccc(CNC(=O)C2CCCN(Cc3nc(-c4ccccc4)oc3C)C2)n1` (stereo not given), the microsomal CLint in data set [3] turned out to be 158 µL/min/mg. Besides, the half-life in data set [4] was determined as 5.76 min.

In data set [5], `Cc1cccc(CNC(=O)C2CN(Cc3nc(-c4ccccc4)oc3C)CCO2)n1` (stereo not given) registered an IC50 above 10 µM.

Turning to `Cc1cccc(CNC(=O)[C@@H]2CCN(Cc3nc(-c4ccccc4)oc3C)C2)n1`, the half-inhibitory concentration (IC50) in data set [5] was above 10 µM.

Turning to `CC[C@@H]1C[C@@H](C(=O)NCc2cccc(C)n2)CN(Cc2nc(-c3ccccc3)oc2C)C1`, in data set [6], the bioavailability came out at 7%. The compound also registered a clearance in data set [7] of 5.88 L/h/kg. Also, the Vd in data set [8] stood at 1.4 L/kg.

Turning to `CC[C@@H]1C[C@@H](C(=O)NCC2CCOCC2)CN(Cc2nc(-c3ccccc3)oc2C)C1`, the microsomal CLint in data set [3] turned out to be 320 µL/min/mg. In data set [4], this compound had a half-life below 3 min.

In the case of `COC[C@@H]1C[C@@H](C(=O)NCC2CCOCC2)CN(Cc2nc(-c3ccccc3)oc2C)C1`, the microsomal CLint in data set [3] was 239 µL/min/mg. Also, the half-life in data set [4] worked out at 4.09 min.

Turning to `CC[C@@H]1C[C@@H](C(=O)NCc2cccc(N)n2)CN(Cc2nc(N3CCOCC3)oc2C)C1`, the intrinsic metabolic clearance (microsomal CLint) in data set [3] stood at 110 µL/min/mg. Further, the half-life in data set [4] amounted to 8.9 min.

For the compound `COC[C@@H]1C[C@@H](C(=O)NCC2CCOCC2)CN(Cc2[nH]c(-c3ccncn3)nc2C)C1`, the microsomal CLint in data set [3] worked out at 63 µL/min/mg. The compound further yielded a half-life in data set [4] of 15.5 min.

For the compound `COC[C@@H]1C[C@@H](C(=O)NC[C@H]2CCCO2)CN(Cc2nc(N3CCOCC3)oc2C)C1`, the microsomal CLint in data set [3] turned out to be 41 µL/min/mg. This compound also yielded a half-life in data set [4] of 23.7 min.

Compound `Cc1cccc(CNC(=O)[C@@H]2C[C@@H](c3nc(C)no3)CN(Cc3nc(-c4ccccc4)oc3C)C2)n1` came in with a microsomal CLint in data set [3] of 105 µL/min/mg.

Regarding `CC[C@@H]1C[C@@H](C(=O)NC[C@H]2CCCO2)CN(Cc2nc(-c3ccncn3)[nH]c2C)C1`, the microsomal CLint in data set [3] was determined as 190 µL/min/mg.

Turning to `Cc1oc(-c2ccccc2)nc1CN1CCC[C@@H](C(=O)NCc2cccc(N)n2)C1`, in data set [3], the microsomal CLint stood at 49 µL/min/mg. Besides, in data set [4], the half-life turned out to be 20.5 min.

Take `Cc1oc(-c2ccccc2)nc1CN1CCC[C@@H](C(=O)NC[C@H]2CCCO2)C1`: in data set [3], the microsomal CLint amounted to 84 µL/min/mg. In data set [4], this compound showed a half-life of 11.6 min.

As for `Cc1cccc(CNC(=O)[C@@H]2C[C@@H](c3nnc(C)o3)CN(Cc3nc(-c4ccccc4)oc3C)C2)n1`, the microsomal CLint in data set [3] is 290 µL/min/mg.

`Cc1oc(-c2ccccc2)nc1CN1C[C@H](C(=O)NCc2cccc(N)n2)C[C@@H](c2ccccc2)C1` gave a microsomal CLint in data set [3] above 300 µL/min/mg.

Turning to `CC[C@H]1C[C@@H](C(=O)NCc2cccc(C)n2)CN(Cc2nc(-c3ccccc3)oc2C)C1`, the intrinsic clearance (microsomal CLint) in data set [3] worked out at 118 µL/min/mg. The compound further displayed a half-life in data set [4] of 7.71 min.

`CC[C@H]1C[C@H](C(=O)NCc2cccc(C)n2)CN(Cc2nc(-c3ccccc3)oc2C)C1` registered a microsomal CLint in data set [3] of 304 µL/min/mg. In data set [4], this compound had a half-life of 3 min.

`COC[C@H]1C[C@H](C(=O)NCc2cccc(C)n2)CN(Cc2nc(-c3ccccc3)oc2C)C1` gave a microsomal CLint in data set [3] of 304 µL/min/mg. In data set [4], this compound had a half-life below 3 min.

Take `COC[C@H]1C[C@@H](C(=O)NCc2cccc(C)n2)CN(Cc2nc(-c3ccccc3)oc2C)C1`: the microsomal CLint in data set [3] was 99.5 µL/min/mg. Besides, the half-life in data set [4] is 9.17 min.

As to `Cc1oc(-c2ccccc2)nc1CN1CCCC(C(=O)NCC2CCOCC2)C1` (stereo not given), the microsomal CLint in data set [3] was 105 µL/min/mg. Moreover, in data set [4], the half-life came out at 9.34 min.

In data set [3], `Cc1cccc(CNC(=O)[C@H]2C[C@H](c3nc(C)no3)CN(Cc3nc(-c4ccccc4)oc3C)C2)n1` displayed a microsomal CLint of 290 µL/min/mg. Further, the half-life in data set [4] was below 3 min.

`Cc1cccc(CNC(=O)[C@H]2C[C@H](c3nnc(C)o3)CN(Cc3nc(-c4ccccc4)oc3C)C2)n1` gave an intrinsic clearance (microsomal CLint) in data set [3] of 290 µL/min/mg. Also, the half-life in data set [4] is below 3 min.

On to `CC[C@@H]1C[C@@H](C(=O)NC[C@@H]2CCCO2)CN(Cc2nc(-c3ccccc3)oc2C)C1`, for which the intrinsic metabolic clearance (microsomal CLint) in data set [3] was 320 µL/min/mg. The compound also registered a half-life in data set [4] below 3 min.

In turn, `Cc1noc([C@@H]2C[C@@H](C(=O)NC[C@@H]3CCCO3)CN(Cc3nc(-c4ccccc4)oc3C)C2)n1` returned an intrinsic clearance (microsomal CLint) in data set [3] of 182 µL/min/mg. In data set [4], this compound registered a half-life of 5.68 min.

`CC[C@@H]1C[C@@H](C(=O)NC[C@@H]2CCCO2)CN(Cc2[nH]c(-c3ccncn3)nc2C)C1` came in with a microsomal CLint in data set [3] of 195 µL/min/mg. The same compound returned a half-life in data set [4] of 5 min.

In data set [3], `COC[C@@H]1C[C@@H](C(=O)NC[C@H]2CCCO2)CN(Cc2nc(-c3ccccc3)oc2C)C1` registered an intrinsic metabolic clearance (microsomal CLint) of 233 µL/min/mg. The compound further yielded a half-life in data set [4] of 4.2 min.

With `COC[C@H]1C[C@@H](C(=O)NC[C@H]2CCCO2)CN(Cc2nc(-c3ccccc3)oc2C)C1`, in data set [3], the intrinsic clearance (microsomal CLint) was 40.3 µL/min/mg. Further, in data set [4], the half-life was 24.2 min.

Take `COC[C@H]1C[C@@H](C(=O)NC[C@H]2CCCO2)CN(Cc2nc(N3CCOCC3)oc2C)C1`: in data set [3], the microsomal CLint was below 8 µL/min/mg. This compound gave a half-life in data set [4] above 120 min.

As to `CC[C@@H]1C[C@@H](C(=O)NC[C@@H]2CCCO2)CN(Cc2nc(N3CCOCC3)oc2C)C1`, the microsomal CLint in data set [3] is 131 µL/min/mg. The same compound gave a half-life in data set [4] of 7.45 min.

In data set [3], `CC[C@H]1C[C@@H](C(=O)NC[C@@H]2CCCO2)CN(Cc2nc(N3CCOCC3)oc2C)C1` displayed an intrinsic metabolic clearance (microsomal CLint) of 18.9 µL/min/mg. Moreover, the half-life in data set [4] came to 51.7 min.

`CC[C@H]1C[C@@H](C(=O)NCc2cccc(N)n2)CN(Cc2nc(N3CCOCC3)oc2C)C1` yielded a microsomal CLint in data set [3] of 31.4 µL/min/mg. The same compound showed a half-life in data set [4] of 31.1 min.

In the case of `CC[C@@H]1C[C@@H](C(=O)NCc2cccc(N)n2)CN(Cc2nc(-c3ccccc3)oc2C)C1`, the microsomal CLint in data set [3] was 281 µL/min/mg. Moreover, the half-life in data set [4] was determined as 3.47 min.

`CC[C@@H]1C[C@@H](C(=O)NCC2CCOCC2)CN(Cc2nc(N3CCOCC3)oc2C)C1` came in with an intrinsic clearance (microsomal CLint) in data set [3] of 142 µL/min/mg. In data set [4], this compound registered a half-life of 6.88 min.

In turn, `CC[C@H]1C[C@@H](C(=O)NCC2CCOCC2)CN(Cc2nc(N3CCOCC3)oc2C)C1` gave an intrinsic clearance (microsomal CLint) in data set [3] of 40.6 µL/min/mg. In data set [4], this compound had a half-life of 24.1 min.

In turn, `CC[C@H]1C[C@@H](C(=O)NCC2CCOCC2)CN(Cc2nc(-c3ccccc3)oc2C)C1` came in with an intrinsic metabolic clearance (microsomal CLint) in data set [3] of 226 µL/min/mg. In data set [4], this compound yielded a half-life of 4.32 min.

Compound `Cc1oc(-c2ccccc2)nc1CN1CCC[C@@H](C(=O)NC[C@@H]2CCCO2)C1` returned an intrinsic metabolic clearance (microsomal CLint) in data set [3] of 69.1 µL/min/mg. Besides, the half-life in data set [4] amounted to 14.1 min.

Compound `CC[C@@H]1C[C@@H](C(=O)NC[C@H]2CCCO2)CN(Cc2nc(-c3ccccc3)oc2C)C1` gave an intrinsic clearance (microsomal CLint) in data set [3] above 320 µL/min/mg. Also, the half-life in data set [4] is below 3 min.

Compound `CC[C@H]1C[C@@H](C(=O)NC[C@H]2CCCO2)CN(Cc2nc(-c3ccccc3)oc2C)C1` gave an intrinsic clearance (microsomal CLint) in data set [3] of 120 µL/min/mg. In data set [4], this compound showed a half-life of 8.15 min.

Compound `COC[C@@H]1C[C@@H](C(=O)NCC2CCOCC2)CN(Cc2nc(N3CCOCC3)oc2C)C1` gave a microsomal CLint in data set [3] of 31.7 µL/min/mg. In addition, in data set [4], the half-life stood at 30.8 min.

As for `COC[C@H]1C[C@@H](C(=O)NCC2CCOCC2)CN(Cc2nc(N3CCOCC3)oc2C)C1`, in data set [3], the microsomal CLint was 19.3 µL/min/mg. Also, the half-life in data set [4] stood at 50.7 min.

In the case of `COC[C@H]1C[C@@H](C(=O)NCC2CCOCC2)CN(Cc2nc(-c3ccncn3)[nH]c2C)C1`, in data set [3], the microsomal CLint was determined as 19.9 µL/min/mg. This compound gave a half-life in data set [4] of 49.2 min.

As a reminder, the pKa is the pH at which an ionisable group is half protonated. Usually logD stands for lipophilicity at a set pH, counting ionised and neutral species. The term microsomal CLint denotes a measure of how fast metabolising enzymes remove a compound, apart from limits set by blood flow. Read a low microsomal CLint as slow turnover. Broadly, the half-life is the time in which the quantity being followed falls by half. A low value points to fast loss. Broadly, the IC50 is the concentration at which inhibition is half-maximal. High values mean a need for much substance, low ones inhibition by little substance. In general, bioavailability refers to dose-corrected exposure relative to a reference, in per cent. High values mean much systemic uptake, low ones little systemic uptake. What is called clearance is a measure of how efficiently the substance is removed, as volume per time. A higher clearance goes with a high capacity for elimination.
